# Experimental data taken from publication PMC6393386 (Frontiers in Pharmacology, 2019).
# Assays:
# [1] = target: T1, Smo (smoothened), wild type hSmo (Homo sapiens, UniProt Q99835); assay: BODIPY-cyclopamine competition in hSmo-transfected HEK293 cells (positive control); type: cell-based
# T1 construct: wild type hSmo expressed in HEK293 cells
# [2] = target: T1, Smo (smoothened), wild type hSmo; assay: BODIPY-cyclopamine competition in hSmo-transfected HEK293 cells (microscopy and flow cytometry); type: cell-based
# T1 sequence (Q99835 28-787): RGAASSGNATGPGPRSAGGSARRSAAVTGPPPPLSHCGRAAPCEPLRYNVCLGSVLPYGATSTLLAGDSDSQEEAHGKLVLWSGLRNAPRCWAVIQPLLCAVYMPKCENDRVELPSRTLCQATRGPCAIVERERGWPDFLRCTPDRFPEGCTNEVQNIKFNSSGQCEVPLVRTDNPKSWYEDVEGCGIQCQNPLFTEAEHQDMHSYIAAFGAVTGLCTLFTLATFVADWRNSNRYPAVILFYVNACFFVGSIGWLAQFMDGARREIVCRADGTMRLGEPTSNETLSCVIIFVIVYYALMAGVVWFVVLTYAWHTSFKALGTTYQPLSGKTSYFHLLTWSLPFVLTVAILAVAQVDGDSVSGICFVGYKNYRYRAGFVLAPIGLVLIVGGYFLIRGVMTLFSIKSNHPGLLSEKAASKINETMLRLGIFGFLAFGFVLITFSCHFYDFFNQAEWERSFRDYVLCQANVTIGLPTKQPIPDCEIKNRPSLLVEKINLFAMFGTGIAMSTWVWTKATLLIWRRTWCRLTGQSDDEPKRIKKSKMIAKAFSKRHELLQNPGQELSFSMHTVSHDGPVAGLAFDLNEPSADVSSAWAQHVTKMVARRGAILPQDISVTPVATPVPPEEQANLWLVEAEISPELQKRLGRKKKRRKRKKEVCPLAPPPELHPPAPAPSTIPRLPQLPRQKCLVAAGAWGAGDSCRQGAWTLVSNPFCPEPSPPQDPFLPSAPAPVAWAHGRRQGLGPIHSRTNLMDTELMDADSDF
SMILES,BODIPY-cyclopamine competition in hSmo-transfected HEK293 cells (positive contro) [1],BODIPY-cyclopamine competition in hSmo-transfected HEK293 cells (microscopy and) [2]
CC1=C2C[C@H]3[C@@H](CC=C4C[C@@H](O)CC[C@@]43C)[C@@H]2CC[C@]12O[C@@H]1C[C@H](C)CN[C@H]1[C@H]2C [cyclopamine],"It was similar to the positive control, cyclopamine",–
Cc1c(-c2ccnn2C)nnc(N2CCC(NC(=O)c3ccc(F)cc3C(F)(F)F)CC2)c1C [L-4],–,there was a dose-dependent replacement of BODIPY-cyclopamine by L-4
